Measured values taken from article PMC5427163, “Simple and cost-effective liquid chromatography-mass spectrometry method to measure dabrafenib quantitatively and six metabolites semi-quantitatively in human plasma” (Analytical and Bioanalytical Chemistry, 2017).
Marks after values point to notes of the source that are not given here. Values belong to the compound of their own block, whether it stands above or below them.

What was measured:
[1] = LC-MS/MS measurement of dabrafenib and metabolites in patient plasma at steady state; type: in vivo, human; details: for Plasma concentration in typical patient sample: Fig. 3, single patient sample; for Diff (difference between the highest and lowest concentrations) / Median C (plasma concentration) / Range of plasma concentration: patient plasma, steady state, dabrafenib 150 mg BID orally
Method: Seven blood samples were obtained between 14 and 17 h after last dose from four different patients with disseminated melanoma after 1, 2, or 3 months of treatment with dabrafenib at the full recommended dose of 150 mg BID orally. […] Plasma was collected after centrifugation, immediately frozen, and stored at −80 °C until analysis. The study protocol was approved by the Ethical Review Board in Stockholm (DNR 2011/1980-31/1) and written informed consent was obtained from patients prior to study entry. Drug-free ethylenediaminetetraacetic acid (EDTA) plasma was donated from six volunteers (three males and three females) with an average age of 26 (22–30) years.
Fifty microliters aliquots of plasma was thawed and precipitated with 200 μL of internal standard mixture containing erlotinib-d6 (200 ng/mL) in acetonitrile. Following vortex mixing, the samples were centrifuged (17530 RCF, 5 min, 4 °C). The supernatant (150 μL) was mixed with 150 μL water and transferred to a 0.7-mL 96-well plate.
Calibration standards for dabrafenib were prepared at seven levels in the concentration range 5–5000 ng/mL (5-15-60-250-1000-3750-5000) by diluting the corresponding working stock solutions 1:10 with drug-free plasma. The upper limit of quantification (ULOQ) was selected based on the highest expected dabrafenib concentration, and the lower limit of quantification (LLOQ) was selected based on observed carry-over from the ULOQ. LOD was not determined as LLOQ was limited by the carry-over. QC samples were prepared separately from the calibration standards at four levels (LLOQ-low-medium-high, 5-15-250-3750 ng/ml).
Due to the lack of reference materials, the six metabolites were semi-quantitatively determined using the calibration curve for dabrafenib. The bias caused by, among other things, differences in recovery and ionization efficiency was not corrected for. This bias is indicated by the addition of an asterisk to the units of metabolite concentrations.

[2] = Clinical pharmacokinetics of dabrafenib (literature); type: in vivo, human; details: plasma
[3] = cited from earlier work; for Variation of plasma concentration during a 12-h period: after a 150-mg dose of dabrafenib at steady state (day 15)
[4] = Stability of dabrafenib in spiked whole blood, plasma and processed samples; type: in vitro ADME, human; details: for Concentration relative to nominal concentration (Rel): long term, −80 °C for 16 months
Method: Stability was evaluated at the low and high QC levels. Processed sample stability by re-injection of calibration and QC samples after 24 h at 5 °C. Freeze-thaw stability (n = 3) was determined for three freeze-thaw cycles at −80 °C. Short-term stability of dabrafenib was investigated in whole blood and plasma using spiked drug-free plasma (n = 2) stored at room temperature or 5 °C for 0, 24, 48, and 72 h, respectively. Long-term stability of dabrafenib (QC low, QC middle, and QC high; n = 3) was determined for a sample stored at −80 °C for 16 months. Accuracy within ±15% of the nominal value was required to consider dabrafenib stable under all conditions.

[5] = design: method as in PMID 22735384; details: phase III trial; cited from earlier work
[6] = Stability of dabrafenib in spiked whole blood, plasma and processed samples; type: in vitro ADME, human; details: 72 h 4°C
[7] = test system: BRAFV600E; design: method as in earlier work; details: cited from earlier work
[8] = semi-quantification based on the calibration curve of dabrafenib
[9] = 14-17 h after last dose, semi-quantification based on the calibration curve of dabrafenib

SMILES: CC(C)c1nc(-c2cccc(NS(=O)(=O)c3c(F)cccc3F)c2F)c(-c2ccnc(N)n2)s1 [Desmethyl-Dab, desmethyl-dabrafenib]
- Plasma concentration in typical patient sample [1, 8]: 660 ng/mL
- Diff (difference between the highest and lowest concentrations) [1]: 4-fold
- Median C (plasma concentration) [1, 9]: 400^a ng/ml
- Range of plasma concentration [1, 8]: (170–660) ng/ml
- IC50 relative to dabrafenib (fold higher) [7]: ~2 fold
- Variation of plasma concentration during a 12-h period [3]: around 1.5 fold

SMILES: C=C(COC1OC(C(=O)O)C(O)C(O)C1O)c1nc(-c2cccc(NS(=O)(=O)c3c(F)cccc3F)c2F)c(-c2ccnc(N)n2)s1 (stereo not drawn) [Gluc met]
- Plasma concentration in typical patient sample [1, 8]: 32 ng/mL
- Diff (difference between the highest and lowest concentrations) [1]: 3-fold
- Median C (plasma concentration) [1, 9]: 38^a ng/ml
- Range of plasma concentration [1, 8]: (22–65)^b ng/ml

SMILES: CC(C)(CO)c1nc(-c2cccc(NS(=O)(=O)c3c(F)cccc3F)c2F)c(-c2ccnc(N)n2)s1 [Hydroxy-Dab, hydroxy-dabrafenib]
- Plasma concentration in typical patient sample [1, 8]: 280 ng/mL
- Diff (difference between the highest and lowest concentrations) [1]: 15-fold
- Median C (plasma concentration) [1, 9]: 74^a ng/ml
- Range of plasma concentration [1, 8]: (19–278) ng/ml
- IC50 relative to dabrafenib (fold higher) [7]: approximately 3 fold
- Variation of plasma concentration during a 12-h period [3]: 7 fold

SMILES: CCCS(=O)(=O)Nc1ccc(F)c(C(=O)c2c[nH]c3ncc(-c4ccc(Cl)cc4)cc23)c1F [vemurafenib]
- Inter-patient variability [3]: 30–60%

Now from value to compound, other results behind:

- Plasma concentration in typical patient sample [1, 8]: 400 ng/mL
- Diff (difference between the highest and lowest concentrations) [1]: 3-fold
- Median C (plasma concentration) [1, 9]: 450^a ng/ml
- Range of plasma concentration [1, 8]: (230–690) ng/ml
- Concentration reported by Falchook et al. relative to this study (fold higher) [2]: 8 fold
SMILES: CC(C)(C(=O)O)c1nc(-c2cccc(NS(=O)(=O)c3c(F)cccc3F)c2F)c(-c2ccnc(N)n2)s1 [Carboxy-Dab, carboxy-dabrafenib]
- Variation of plasma concentration during a 12-h period [3]: around 1.5 fold

- Plasma concentration in lowest patient sample ([1]; Fig. 2): 75 ng/mL
- Plasma concentration in typical patient sample ([1]; quantitative): 1400 ng/mL
- Diff (difference between the highest and lowest concentrations) [1]: 19-fold
- Median C (plasma concentration) ([1]; 14-17 h after last dose, 7 samples from 4 patients, quantitative): 400 ng/mL
- Range of plasma concentration ([1]; 14-17 h after last dose, quantitative): (75–1400) ng/ml
- Long-term stability in plasma ([4]; 16 months of storage at −80 °C): stable
- Stability of processed samples ([4]; 24 h at 5 °C, stable = accuracy within ±15% of nominal): stable
- Short-term stability in whole blood or plasma ([4]; 72 h at room temperature and at 5 °C, stable = accuracy within ±15% of nominal): stable
- Concentration relative to initial sample concentration (Rel) ([4]; plasma, High QC, 72 h 4°C): 106%
- Concentration relative to initial sample concentration (Rel) ([4]; plasma, High QC, 72 h RT): 101%
- Concentration relative to nominal concentration (Rel) ([4]; plasma, High QC): 106%
- Concentration relative to initial sample concentration (Rel) ([4]; plasma, High QC, three freeze-thaw cycles at −80 °C): 96%
- Concentration relative to initial sample concentration (Rel) ([4]; plasma, Low QC, 72 h RT): 98%
- Concentration relative to nominal concentration (Rel) ([4]; plasma, Low QC): 101%
- Concentration relative to initial sample concentration (Rel) ([4]; plasma, Low QC, three freeze-thaw cycles at −80 °C): 98%
- Concentration relative to initial sample concentration (Rel) ([4]; processed sample, High QC, 24 h 5°C): 89%
- Concentration relative to initial sample concentration (Rel) ([4]; processed sample, Low QC, 24 h 5°C): 87%
- Freeze-thaw stability in plasma ([4]; three freeze-thaw cycles): stable
- Concentration relative to initial sample concentration (Rel) ([4]; whole blood, High QC, 72 h RT): 95%
- Concentration relative to initial sample concentration (Rel) ([4]; whole blood, Low QC, 72 h RT): 94%
- Concentration relative to initial sample concentration (Rel) ([6]; plasma, Low QC): 109%
- Concentration relative to initial sample concentration (Rel) ([6]; whole blood, High QC): 99%
- Concentration relative to initial sample concentration (Rel) ([6]; whole blood, Low QC): 99%
SMILES: CC(C)(C)c1nc(-c2cccc(NS(=O)(=O)c3c(F)cccc3F)c2F)c(-c2ccnc(N)n2)s1 [Dabrafenib]
- Variation of plasma concentration during a 12-h period [3]: 16 fold
- Inter-patient coefficient of variation (CV) in maximum concentration at steady state [3]: 73%
- Half-life ([3]; patients): 4.8 h
- Patients with adverse events of grade 2 or greater [5]: 53%

- Plasma concentration in typical patient sample [1, 8]: 550 ng/mL
- Diff (difference between the highest and lowest concentrations) [1]: 4-fold
- Median C (plasma concentration) [1, 9]: 400^a ng/ml
- Range of plasma concentration [1, 8]: (160–590) ng/ml
SMILES: C=C(C)c1nc(-c2cccc(NS(=O)(=O)c3c(F)cccc3F)c2F)c(-c2ccnc(N)n2)s1 [M31]
